Test results published in PMC9883482, “TPX2 enhances the transcription factor activation of PXR and enhances the resistance of hepatocellular carcinoma cells to antitumor drugs” (Cell Death & Disease, 2023).

Experiments:
advanced HCC patients = experiment: Prognosis of advanced HCC patients who received sorafenib, by TPX2 mRNA expression; assay type: in vivo, human; settings: advanced HCC patients on sorafenib
Experimental: The human-related experimental materials involved in this study consisted of mainly cDNA samples extracted from patient-derived HCC clinical specimens or the HCC cell lines. The cDNA samples were stored in a –80 °C refrigerator and stored in aliquots. […] Baseline information was detailed in our previous publications. The cell lines use in this study included various HCC cell lines (HepG2 [a HCC cell line], MHCC97-H [a highly aggressive HCC cell line], and MHCC97-L [a lowly aggressive HCC cell line]) and a PXR positive colorectal cancer line LS180. These cells were purchased from the National Infrastructure of Cell Resources of the Chinese Academy of Medical Sciences/China Union Medical College and descripted in our previous work.
All statistical analyses in the presence work were performed using the GraphPad 8.0 (GraphPad Software Corporation, Armonk, NY, USA). […] For the co-relationship analysis, the data were analyzed by linear regression to determine the overall trend of a group of data points. […] If the slope was positive, the horizontal coordinate was positively related to the vertical coordinate, and if the slope was negative, the horizontal coordinate was negatively related to the vertical coordinate. […] An ANOVA was used to examine whether any difference between groups could be detected. […]

[1] = Sorafenib metabolism/clearance in LS180 cells; assay type: in vitro ADME; settings: human, read-out: t1/2 values (converted)
HepG2 cells = experiment: Subcutaneous tumor model; assay type: in vivo; settings: nude mice; 2.0, 1.0 or 0.5 mg/kg oral
Description: In the process of dissolving these pure drug powders, stirring, vortexing, and ultrasonic vibration were used to assist dissolution.
The HCC cells were transfected with plasmids and then injected into the subcutaneous position of nude mice (the HepG2 cells were transfected with TPX2 for TPX2 overexpression and the siRNA of TPX2 for TPX2 knockdown). After the cells in the bottom of the dish were digested with trypsin, the cells were gently mixed with sterilized PBS to prepare a cell suspension. The resulting cell suspension was directly injected subcutaneously into nude mice using a pre-sterilized disposable medical syringe with a capacity of 1 ml. After that step, animal status was observed every day, and the tumor tissue was collected after 4 to 6 weeks of growth to detect the tumor volume (using a Vernier caliper to measure the long and short axes of the tumor tissue after which the tumor volume was calculated according to the formula: short axis × short axis × long axis/2) and weight (accurately weighed with a 1/10000th precision balance). Finally, the tumor tissue was ground with liquid nitrogen, and qPCR was then used to measure the mRNA expression level of the corresponding genes. The intrahepatic tumor model and the in vivo imaging of small-animals-related experiments were performed according to our previous publications. […]

[2] = Sorafenib metabolism/clearance in cultured cells, LC-MS/MS; assay type: in vitro ADME; settings: human
Experimental: After incubation with sorafenib was complete, the medium containing sorafenib was discarded and replaced with normal DMEM + FBS for continuous cultures. Cell samples were collected at each time point starting at 0 (when the cell samples were collected immediately after the incubation step/baseline) followed by 4, 8, 12, 24, and 48 h.
For sorafenib-treated samples in cellular experiments, sorafenib processing and extraction of the samples were performed. HCC cell samples were re-suspended in PBS after which the organic solvent acetonitrile at a ratio of 1:1 was added. The samples were then crushed and extracted for about 30 min with vortex shaking. After that step, the samples were centrifuged at 12,000 rpm at 4 °C for about 15 to 20 min. At this time, the samples were separated into cell debris, organic, and water phases. The collected organic phase contained the sample of sorafenib in acetonitrile.
S transition pair was detected using LC–MS/MS: (1) the parent ion was 465 Da and (2) the product ion was 252 Da.
All statistical analyses in the presence work were performed using the GraphPad 8.0 (GraphPad Software Corporation, Armonk, NY, USA). […] For the survival analysis data, the survival curves were analyzed by the log-rank (Mantel–Cox) test to detect the P-value of the survival curve, the median survival time, and the 95% confidence interval (CI). For the co-relationship analysis, the data were analyzed by linear regression to determine the overall trend of a group of data points. […] If the slope was positive, the horizontal coordinate was positively related to the vertical coordinate, and if the slope was negative, the horizontal coordinate was negatively related to the vertical coordinate. For the multi-grouped data, the ordinary one-way analysis of variance (ANOVA) and multiple comparison methods were used. An ANOVA was used to examine whether any difference between groups could be detected. The multiple comparisons (t-test) was used to detect differences between pairs of data.

[3] = Blood concentration assay of sorafenib, mice bearing MHCC97-H tumours; assay type: in vivo; settings: nude, mouse, plasma, 2 mg/kg, 2 mg/kg oral
Experimental: Table notes: After knockdown of TPX2 in MHCC97-H cells, the cells were inoculated with nude mice to form subcutaneous tumour tissue (the volume of tumour tissue was approximately 1 g) and then given 2 mg/kg via oral administration. After knockdown TPX2 in MHCC97-H cells, the cells were inoculated into nude mice to form subcutaneous tumour tissue and then in situ liver tumour tissue was established. 2mg/kg via oral administration was given to nude mice. Thereafter, blood levels of sorafenib were measured.

[4] = oral, Subcutaneous MHCC97-H Control tumour
[5] = oral, Subcutaneous MHCC97-H siTPX2 tumour
[6] = po, intrahepatic MHCC97-H Control tumour
[7] = po, intrahepatic MHCC97-H siTPX2 tumour

Structure (SMILES): CNC(=O)c1cc(Oc2ccc(NC(=O)Nc3ccc(Cl)c(C(F)(F)F)c3)cc2)ccn1 [sorafenib]
- TTP median value (advanced HCC patients; TPX2 mRNA High (n = 26)): 9.0 months
- OS median value (advanced HCC patients; TPX2 mRNA Low (n = 26)): 16.0 months
- half-life at 1 μmol/L ([1]; TPX2 knockdown): 32.7 h
- half-life at 1 μmol/L ([1]; TPX2 overexpression): 12 h
- half-life at 1 μmol/L ([1]; control of TPX2 knockdown experiment): 21.8 h
- half-life at 1 μmol/L ([1]; control of TPX2 overexpression experiment): 21.3 h
- subcutaneous growth of HepG2 cells (tumor volumes/weights) (HepG2 cells): inhibited the subcutaneous growth of HepG2 cells in a dose-dependent manner
- half-life at 1 μmol/L ([2]; HepG2 cells, Control, median (95% CI), read-out: t1/2 values (converted)): 18.9 h
- half-life at 1 μmol/L ([2]; HepG2 cells, TPX2 overexpression, median (95% CI), read-out: t1/2 values (converted)): 13.7 h
- half-life at 1 μmol/L ([2]; HepG2 cells, siTPX2, read-out: t1/2 values (converted)): > 24 h
- half-life at 1 μmol/L ([2]; MHCC97-H cells, Control, median (95% CI), read-out: t1/2 values (converted)): 15.5 h
- half-life at 1 μmol/L ([2]; MHCC97-H cells, siTPX2, median (95% CI), read-out: t1/2 values (converted)): 36.6 h
- half-life at 1 μmol/L ([2]; MHCC97-L cells, Control, median (95% CI), read-out: t1/2 values (converted)): 18.7 h
- half-life at 1 μmol/L ([2]; MHCC97-L cells, TPX2 overexpression, median (95% CI), read-out: t1/2 values (converted)): 11.9 h
- concentration at 2 h [3, 4]: 23.3 ± 16.6 ng/mL
- concentration at 2 h [3, 5]: 33.2 ± 19.4 ng/mL
- concentration at 8 h [3, 4]: 152 ± 25.4 ng/mL
- concentration at 8 h [3, 5]: 170 ± 32.3 ng/mL
- concentration at 20 h [3, 4]: 123 ± 23.6 ng/mL
- concentration at 20 h [3, 5]: 142 ± 21.4 ng/mL
- concentration at 40 h [3, 4]: 63 ± 14.5 ng/mL
- concentration at 40 h [3, 5]: 77.5 ± 23.5 ng/mL
- concentration at 2 h [3, 6]: 22.5 ± 11.8 ng/mL
- concentration at 2 h [3, 7]: 24.3 ± 14.2 ng/mL
- concentration at 8 h [3, 6]: 146 ± 28.7 ng/mL
- concentration at 8 h [3, 7]: 152 ± 22.1 ng/mL
- concentration at 20 h [3, 6]: 120 ± 32 ng/mL
- concentration at 20 h [3, 7]: 127 ± 31.2 ng/mL
- concentration at 40 h [3, 6]: 46.8 ± 31.9 ng/mL
- concentration at 40 h [3, 7]: 57.8 ± 27.6 ng/mL
